Measurements taken from ChEMBL document CHEMBL3784944, “N-Indolylglycosides bearing modifications at the glucose C6-position as sodium-dependent glucose co-transporter 2 inhibitors” (Bioorg Med Chem, 2016).
Active and inactive are the calls of the source. No cut-off for these calls is given here.

Assays:
[1] = target: T1, Sodium/glucose cotransporter 2 (Homo sapiens, UniProt P31639); test: Inhibition of human SGLT2 expressed in CHO-K1 cells assessed as reduction in [14C]AMG uptake after 120 mins by scintillation counting method; assay type: cell-based
T1 sequence (P31639 whole entry): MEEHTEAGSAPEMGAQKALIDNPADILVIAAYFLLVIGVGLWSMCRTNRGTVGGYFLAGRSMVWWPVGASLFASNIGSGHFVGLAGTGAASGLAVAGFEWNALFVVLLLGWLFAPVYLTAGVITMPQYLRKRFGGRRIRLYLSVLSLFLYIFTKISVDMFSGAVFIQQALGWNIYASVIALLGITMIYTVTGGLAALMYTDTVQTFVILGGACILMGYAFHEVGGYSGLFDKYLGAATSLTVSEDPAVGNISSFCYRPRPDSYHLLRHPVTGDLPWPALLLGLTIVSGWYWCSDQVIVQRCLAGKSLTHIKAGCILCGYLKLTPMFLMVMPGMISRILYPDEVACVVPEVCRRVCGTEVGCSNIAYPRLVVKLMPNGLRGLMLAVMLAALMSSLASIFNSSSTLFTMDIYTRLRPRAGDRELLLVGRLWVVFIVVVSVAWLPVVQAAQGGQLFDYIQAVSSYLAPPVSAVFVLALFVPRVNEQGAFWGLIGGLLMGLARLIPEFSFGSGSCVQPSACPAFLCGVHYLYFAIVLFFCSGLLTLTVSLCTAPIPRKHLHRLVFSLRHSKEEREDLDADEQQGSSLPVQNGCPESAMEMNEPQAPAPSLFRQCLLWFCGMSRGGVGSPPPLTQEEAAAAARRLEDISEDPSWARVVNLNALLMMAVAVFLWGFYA

[2] = Half life in Sprague-Dawley rat at 1.1 mg/kg, po by LC-MS/MS analysis; assay type: ADME, organism-based; conditions: in vivo
Rattus norvegicus [3] = test: Reduction of blood glucose level in Sprague-Dawley rat at 50 mg/kg, po administered as single dose via oral gavage after 0.5 to 1 hr by oral glucose tolerance test; assay type: functional, organism-based
[4] = AUC (0 to infinity) in Sprague-Dawley rat at 1.1 mg/kg, iv administered via bolus injection measured at 2 to 5 mins post dose by LC-MS/MS analysis; assay type: ADME, organism-based; parameters: dose 1.1 mg/kg, route intravenous, time infinity; conditions: in vivo
[5] = Tmax in Sprague-Dawley rat at 1.1 mg/kg, po measured at 15 mins to 24 hrs post dose by LC-MS/MS analysis; assay type: ADME, organism-based; conditions: in vivo
[6] = Oral bioavailability in Sprague-Dawley rat at 1.1 mg/kg measured at 15 mins to 24 hrs after drug challenge by LC-MS/MS analysis; assay type: ADME, organism-based; conditions: in vivo
[7] = Cmax in Sprague-Dawley rat at 1.1 mg/kg, po measured at 15 mins to 24 hrs post dose by LC-MS/MS analysis; assay type: ADME, organism-based; parameters: dose 1.1 mg/kg, route oral; conditions: in vivo
[8] = Half life in Sprague-Dawley rat at 1.1 mg/kg, iv administered via bolus injection by LC-MS/MS analysis; assay type: ADME, organism-based; conditions: in vivo
Rattus norvegicus [9] = test: Effect on glucose AUC in Sprague-Dawley rat at 50 mg/kg, po administered as single dose via oral gavage after 0.5 to 1 hr by oral glucose tolerance test; assay type: functional, organism-based
[10] = AUC (0 to infinity) in Sprague-Dawley rat at 1.1 mg/kg, po measured at 15 mins to 24 hrs post dose by LC-MS/MS analysis; assay type: ADME, organism-based; parameters: dose 1.1 mg/kg, time infinity, route oral; conditions: in vivo
[11] = Clearance in Sprague-Dawley rat at 1.1 mg/kg, iv administered via bolus injection measured at 2 to 5 mins post dose by LC-MS/MS analysis; assay type: ADME, organism-based; conditions: in vivo
[12] = Volume of distribution at steady state in Sprague-Dawley rat at 1.1 mg/kg, iv administered via bolus injection measured at 2 to 5 mins post dose by LC-MS/MS analysis; assay type: ADME, organism-based; conditions: in vivo, read-out: Vdss
Rattus norvegicus [13] = test: Induction of glucosuria in Sprague-Dawley rat assessed as increase in glucose excretion per 200 g body weight at 50 mg/kg, administered as single dose via oral gavage after 24 hrs by oral glucose tolerance test (reference value: 0.23 mg); assay type: functional
CHO-K1 = test: Selectivity ratio of EC50 for human SGLT1 expressed in CHO-K1 cells to EC50 for human SGLT2 expressed in CHO-K1 cells; assay type: cell-based
Rattus norvegicus [14] = test: Induction of glucosuria in Sprague-Dawley rat assessed as increase in glucose excretion at 50 mg/kg administered as single dose via oral gavage after 24 hrs by oral glucose tolerance test; assay type: functional, organism-based

Row | SMILES | EC50 [1] [nM] | further results
1 | COCCCNC(=S)NC[C@H]1O[C@@H](n2cc(Cc3ccc(C4CC4)cc3)c3c(Cl)cccc32)[C@H](O)[C@@H](O)[C@@H]1O | 586 | –
2 | O=C(NCCCl)NC[C@H]1O[C@@H](n2cc(Cc3ccc(C4CC4)cc3)c3c(Cl)cccc32)[C@H](O)[C@@H](O)[C@@H]1O | 598 | –
3 | O=C(NCCCCl)NC[C@H]1O[C@@H](n2cc(Cc3ccc(C4CC4)cc3)c3c(Cl)cccc32)[C@H](O)[C@@H](O)[C@@H]1O | 151 | Ratio EC50 (CHO-K1): 6
4 | O[C@@H]1[C@@H](O)[C@H](n2cc(Cc3ccc(C4CC4)cc3)c3c(Cl)cccc32)OC[C@H]1O | – | Ratio EC50 (CHO-K1): 2
5 | O=C(NC[C@H]1O[C@@H](n2cc(Cc3ccc(C4CC4)cc3)c3c(Cl)cccc32)[C@H](O)[C@@H](O)[C@@H]1O)c1ccno1 | 387 | –
6 | O=C(CCBr)NC[C@H]1O[C@@H](n2cc(Cc3ccc(C4CC4)cc3)c3c(Cl)cccc32)[C@H](O)[C@@H](O)[C@@H]1O | 151 | –
7 | O=C(O)CC(=O)NC[C@H]1O[C@@H](n2cc(Cc3ccc(C4CC4)cc3)c3c(Cl)cccc32)[C@H](O)[C@@H](O)[C@@H]1O | 3440 | –
8 | O=C(Cc1cccs1)NC[C@H]1O[C@@H](n2cc(Cc3ccc(C4CC4)cc3)c3c(Cl)cccc32)[C@H](O)[C@@H](O)[C@@H]1O | 499 | –
9 | O=C(NC[C@H]1O[C@@H](n2cc(Cc3ccc(C4CC4)cc3)c3c(Cl)cccc32)[C@H](O)[C@@H](O)[C@@H]1O)C1CC1 | 552 | –
10 | O=C(NC[C@H]1O[C@@H](n2cc(Cc3ccc(C4CC4)cc3)c3c(Cl)cccc32)[C@H](O)[C@@H](O)[C@@H]1O)C(Cl)Cl | 184 | –
11 | O=C(NC[C@H]1O[C@@H](n2cc(Cc3ccc(C4CC4)cc3)c3c(Cl)cccc32)[C@H](O)[C@@H](O)[C@@H]1O)c1ccc(CCl)cc1 | 2590 | –
12 | O=C(CSc1ccccc1)NC[C@H]1O[C@@H](n2cc(Cc3ccc(C4CC4)cc3)c3c(Cl)cccc32)[C@H](O)[C@@H](O)[C@@H]1O | 2090 | –
13 | COc1ccc(C(=O)NC[C@H]2O[C@@H](n3cc(Cc4ccc(C5CC5)cc4)c4c(Cl)cccc43)[C@H](O)[C@@H](O)[C@@H]2O)cc1 | 2370 | –
14 | OC[C@H]1O[C@@H](n2cc(Cc3ccc(C4CC4)cc3)c3c(Cl)cccc32)[C@H](O)[C@@H](O)[C@@H]1O | 14 | Ratio EC50 (CHO-K1): 2
15 | COc1ccc(NC(=S)NC[C@H]2O[C@@H](n3cc(Cc4ccc(C5CC5)cc4)c4c(Cl)cccc43)[C@H](O)[C@@H](O)[C@@H]2O)cc1 | 485 | –

The next lines start with results.

Row | EC50 [1] [nM] | SMILES | further results
16 | 42 | CC(=O)NC[C@H]1O[C@@H](n2cc(Cc3ccc(C4CC4)cc3)c3c(Cl)cccc32)[C@H](O)[C@@H](O)[C@@H]1O | half-life [2]: 2.5 h; Activity (Rattus norvegicus [3]): Active; AUC(0-inf) [4]: 996 ng·h/mL; Tmax [5]: 1.2 h; bioavailability [6]: 10%; Cmax [7]: 25.2 ng/mL; half-life [8]: 3.2 h; Activity (Rattus norvegicus [9]): inactive; AUC(0-inf) [10]: 99 ng·h/mL; clearance [11]: 18.8 mL/min/kg; Vd [12]: 2.7 L/kg; Activity (Rattus norvegicus [13]): 101 mg
17 | 2720 | O=C(O)c1cn(C[C@H]2O[C@@H](n3cc(Cc4ccc(C5CC5)cc4)c4c(Cl)cccc43)[C@H](O)[C@@H](O)[C@@H]2O)nn1 | –
18 | 655 | CCOc1cn(C[C@H]2O[C@@H](n3cc(Cc4ccc(C5CC5)cc4)c4c(Cl)cccc43)[C@H](O)[C@@H](O)[C@@H]2O)nn1 | –
19 | 249 | CCOC(=O)C(=O)NC[C@H]1O[C@@H](n2cc(Cc3ccc(C4CC4)cc3)c3c(Cl)cccc32)[C@H](O)[C@@H](O)[C@@H]1O | –
20 | 1590 | O[C@@H]1[C@@H](O)[C@H](n2cc(Cc3ccc(C4CC4)cc3)c3c(Cl)cccc32)O[C@H](Cn2cc(C3CCCC3)nn2)[C@H]1O | –
21 | 118 | CCOC(=O)CC(=O)NC[C@H]1O[C@@H](n2cc(Cc3ccc(C4CC4)cc3)c3c(Cl)cccc32)[C@H](O)[C@@H](O)[C@@H]1O | –
22 | 515 | CCOC(=O)CNC(=O)NC[C@H]1O[C@@H](n2cc(Cc3ccc(C4CC4)cc3)c3c(Cl)cccc32)[C@H](O)[C@@H](O)[C@@H]1O | –
23 | 284 | COC(=O)C(=O)NC[C@H]1O[C@@H](n2cc(Cc3ccc(C4CC4)cc3)c3c(Cl)cccc32)[C@H](O)[C@@H](O)[C@@H]1O | Ratio EC50 (CHO-K1): 20
24 | 649 | CC(C)C(=O)NC[C@H]1O[C@@H](n2cc(Cc3ccc(C4CC4)cc3)c3c(Cl)cccc32)[C@H](O)[C@@H](O)[C@@H]1O | –
25 | 160 | O=C(CCCl)NC[C@H]1O[C@@H](n2cc(Cc3ccc(C4CC4)cc3)c3c(Cl)cccc32)[C@H](O)[C@@H](O)[C@@H]1O | –
26 | 286 | CCOC(=O)CNC(=S)NC[C@H]1O[C@@H](n2cc(Cc3ccc(C4CC4)cc3)c3c(Cl)cccc32)[C@H](O)[C@@H](O)[C@@H]1O | Ratio EC50 (CHO-K1): 3
27 | 1000 | CCOC(=O)NC(=O)NC[C@H]1O[C@@H](n2cc(Cc3ccc(C4CC4)cc3)c3c(Cl)cccc32)[C@H](O)[C@@H](O)[C@@H]1O | –
28 | 237 | NC[C@H]1O[C@@H](n2cc(Cc3ccc(C4CC4)cc3)c3c(Cl)cccc32)[C@H](O)[C@@H](O)[C@@H]1O | Ratio EC50 (CHO-K1): 9
29 | 716 | CCNC(=S)NC[C@H]1O[C@@H](n2cc(Cc3ccc(C4CC4)cc3)c3c(Cl)cccc32)[C@H](O)[C@@H](O)[C@@H]1O | –
30 | 119 | COC(=O)c1cn(C[C@H]2O[C@@H](n3cc(Cc4ccc(C5CC5)cc4)c4c(Cl)cccc43)[C@H](O)[C@@H](O)[C@@H]2O)nn1 | –
31 | 588 | CCOC(=O)CCC(=O)NC[C@H]1O[C@@H](n2cc(Cc3ccc(C4CC4)cc3)c3c(Cl)cccc32)[C@H](O)[C@@H](O)[C@@H]1O | –
32 | 113 | O=C(CCl)NC[C@H]1O[C@@H](n2cc(Cc3ccc(C4CC4)cc3)c3c(Cl)cccc32)[C@H](O)[C@@H](O)[C@@H]1O | –
33 | 359 | O[C@@H]1[C@@H](O)[C@H](n2cc(Cc3ccc(C4CC4)cc3)c3c(Cl)cccc32)O[C@H](Cn2cc(C3CC3)nn2)[C@H]1O | –
34 | 39 | COC(=O)CC(=O)NC[C@H]1O[C@@H](n2cc(Cc3ccc(C4CC4)cc3)c3c(Cl)cccc32)[C@H](O)[C@@H](O)[C@@H]1O | Activity (Rattus norvegicus [14]): inactive
35 | 315 | CNC(=S)NC[C@H]1O[C@@H](n2cc(Cc3ccc(C4CC4)cc3)c3c(Cl)cccc32)[C@H](O)[C@@H](O)[C@@H]1O | –
